Source: patent US20250099455A1, “TREATMENT FOR CONGESTIVE HEART FAILURE” (FibroGen, Inc., priority 2022, published 2025)
“Also recorded” adds a separate entry of the source. Like-named read-outs stand apart in the source and are kept apart here.

Columns and labels:
PK profile in rats = format: in vivo, rat
[1] = tested on: congestive heart failure subsequent to myocardial infarction; experiment: Rat CHF subsequent to myocardial infarction, daily dosing (Example 4); format: in vivo
Procedure: A similar experiment was carried out in which rats were dosed more frequently with a lower dose. Animals were dosed orally every day with vehicle, 2 mg/kg, 6 mg/kg or 20 mg/kg compound from day 2 to day 26 post MI. […] The effect of the compound of Formula I on cardiac function in congestive heart failure (CHF) was studied by inducing CHF subsequent to myocardial infarction (MI). Four groups of rats (n=12) were subjected to MI by 30 minute ligation of the left coronary artery followed by reperfusion. In a sham group, rats underwent a similar surgical procedure except that the left coronary artery was not occluded. Treatment with the compound of Formula I was initiated 2 days after reperfusion. In the MI groups, rats were dosed orally daily with vehicle, 2 mg/kg, 6 mg/kg or 20 mg/kg compound from day 2 to day 26 post MI. In the sham group, rats were dosed with vehicle on the same schedule. At 28 days post-MI, cardiac function, heart weight, and complete blood count (CBC) were measured. • Male Sprague Dawley rats • Ligation of left coronary artery for 30 minutes followed by reperfusion • Post-ligation recovery for 28 days • Cardiac function 28 days after ischemia-reperfusion using a Millar pressure-volume catheter inserted in the left ventricle via the carotid artery • Record pressure-volume loops over several cardiac cycles and derived cardiac function parameters

PK profile in monkeys = format: in vivo, monkey; conditions: for bioavailability: po
[2] = tested on: diastolic dysfunction HF in obese ZSF1 rats; experiment: ZSF1 model of heart failure with preserved ejection fraction (HFpEF), monotherapy; format: in vivo, rat
Source text: This study determined the effects of the compound of Formula I on cardiac function after 16 weeks of treatment in male obese ZSF1 rats.
Lean ZSF1 rats were used as controls.
The obese ZSF1 rat was developed by crossing diabetic Zucker fatty rats with spontaneously hypertensive heart failure (SHHF) rats
• Hypertension • Impaired renal function • Obesity • Type 2 diabetes • Insulin resistance, hyperinsulinemia • Hypertriglyceridemia, • Hypercholesterolemia

[3] = Tissue distribution in mice; format: in vivo, mouse; conditions: for Compound of Formula 1 (μg/mL or μg/g): male Swiss Webster mice, single iv dose 60 mg/kg; for Kp at 4 h / Kp at 8 h: male, Swiss Webster, mouse, mice, single iv 60 mg/kg, read-out: Tissue/plasma ratio
Procedure: • N=3/time point, male Swiss Webster mice, single iv dose, 60 mg/kg Compound of Formula I

[4] = tested on: acute myocardial ischemia; experiment: Acute cardioprotection: infarct size post-acute myocardial ischemia; format: in vivo
[5] = tested on: congestive heart failure subsequent to myocardial infarction; experiment: Rat CHF subsequent to myocardial infarction, delayed treatment (Example 2); format: in vivo
Procedure: The effect of delayed treatment with the compound of Formula I on cardiac function in congestive heart failure (CHF) was studied by inducing CHF subsequent to MI. Four groups of rats (n=11-12) were subjected to MI by 30 minute ligation of the left coronary artery followed by reperfusion. In a sham group, rats underwent a similar surgical procedure except that the left coronary artery was not occluded. Cardiac function was measured in one group at 28 days post-MI (Baseline). In the remaining MI groups, dosing with vehicle or test article was initiated on Day 28. Rats were orally dosed every other day with vehicle, 6 mg/kg or 20 mg/kg compound from day 28 until day 54 post-MI. At 56 days post-MI, cardiac function, heart weight and complete blood count (CBC) were measured. • Male Sprague Dawley rats • Ligation of left coronary artery for 30 minutes followed by reperfusion • Post-ligation recovery for 28 days • Cardiac function 28 days after ischemia-reperfusion using a Millar pressure-volume catheter inserted in the left ventricle via the carotid artery • Record pressure-volume loops over several cardiac cycles and derived cardiac function parameters

[6] = 2, 6 or 20 mg/kg oral daily day 2-26 post MI, 28 days post-MI
[7] = 2, 6 or 20 mg/kg oral daily day 2-26 post MI, 28 days post-MI, vs vehicle
[8] = both sexes, monkey, in vivo, oral, monkeys, males and females
[9] = both sexes, monkey, in vivo, monkeys, males and females
[10] = in vivo, monkey, PK summary table
[11] = delayed administration, 6, 20 mg/kg QOD, 4 weeks
[12] = delayed: 6 or 20 mg/kg oral QOD day 28-54 post-MI, 56 days post-MI
[13] = delayed: 6 or 20 mg/kg oral QOD day 28-54 post-MI, 56 days post-MI, vs vehicle

For CC(C)(CC(=O)O)NC(=O)c1nc(C#N)c2cc(Oc3ccccc3)ccc2c1O [Formula I, 3-[(1-cyano-4-hydroxy-7-phenoxy-isoquinoline-3-carbonyl)-amino]-3-methyl-butyric acid], the Tmax (PK profile in rats; in vivo, oral, rat, PK summary table) was 5 to 6 h, the “Sex difference in PK” value (PK profile in rats; rat) was “No” and the “Accumulation (after multiple dosing)” value (PK profile in rats; rat, 4 wk GLP TK) was “Yes (4 wk”. The Dose proportional (PK profile in rats; rat, 10-150 mg/kg) was “Yes”, the clearance (PK profile in rats; rat, in vivo, PK summary table) was 0.367 to 0.667 mL/min/kg and the half-life (PK profile in rats; rat, in vivo, PK summary table, mostly) was 5 to 6 h. The half-life (PK profile in rats; rat, in vivo, PK summary table, some longer) was 10 to 15 h, the bioavailability (PK profile in rats; rat, in vivo, po, rats, read-out: Oral bioavailability (Oral % F)) was about 78% and the AUC(0-inf) (PK profile in rats; rat, in vivo, rats) was 1080 ± 328 µg·h/mL. The AUC(0-t) (PK profile in rats; rat, in vivo, rats) was 1010 ± 268 µg·h/mL, the Cmax (PK profile in rats; rat, in vivo, rats) was 91 ± 12 µg/mL and the Tmax (PK profile in rats; rat, in vivo, rats) was 6.7 ± 1.2 h. It also gave a clearance (PK profile in rats; rat, in vivo, rats) of 0.367 mL/min/kg, a half-life (PK profile in rats; rat, in vivo, rats) of 5 ± 1.3 h and a Vd (PK profile in rats; rat, in vivo, rats, read-out: Vss) of 0.123 ± 0.056 L/kg. The “Accumulation (after multiple dosing)” value (PK profile in rats; rat, once daily dosing 2 weeks) was “Unclear”, the “CL relative to hepatic blood flow rate” value (PK profile in rats; rats) was “lower than hepatic blow flow rate” and the “Vss relative to plasma volume” value (PK profile in rats; rats) was “higher than plasma volume”. For the same compound, the collagen deposition ([1]; 2, 6, 20 mg/kg daily, 4 weeks) was “Significant reduction in cardiac”, the diastolic function ([1]; 2, 6, 20 mg/kg daily, 4 weeks) was “deposition, improvement in systolic” and the systolic function ([1]; 2, 6, 20 mg/kg daily, 4 weeks) was “deposition, improvement in systolic”. For the same compound, the circulating hemoglobin level [1, 6] was “did not produce a concomitant significant increase; also recorded: without any concomitant rise”, the “other CBC parameters” value [1, 6] was “did not produce a concomitant significant increase in circulating hemoglobin level or have a significant effect” and the arterial elastance [1, 7] was “significantly improved”. For the same compound, the cardiac hypertrophy [1, 7] was “significantly improved; also recorded: significant improvement; also recorded: Significant reduction in cardiac”, the cardiac output [1, 7] was “significantly improved; also recorded: significant improvement” and the dPdtmax [1, 7] was “significantly improved”. For the same compound, the ejection fraction [1, 7] was “significantly improved; also recorded: significant improvement; also recorded: fraction improved at all doses)”, the end systolic volume [1, 7] was “significantly improved; also recorded: significant improvement” and the end-diastolic pressure [1, 7] was “significantly improved”. The relaxation time [1, 7] was “significantly improved; also recorded: significant improvement”, the stroke volume [1, 7] was “significantly improved; also recorded: significant improvement” and the stroke work [1, 7] was “significantly improved; also recorded: significant improvement”. For the same compound, the “effectiveness of a lower dose at more frequent intervals vs a higher dose at less frequent intervals” value ([1]; daily 2, 6, 20 mg/kg vs every other day dosing) was “equally effective”, the cardiac contractility ([1]; daily for 28 days) was “significant improvement” and the Cmax (PK profile in monkeys; [8]) was 10.9 ± 3.7 µg/mL. It also gave a Tmax (PK profile in monkeys; [8]) of 2.6 ± 1.6 h, an AUC(0-inf) (PK profile in monkeys; [9]) of 180 ± 68 µg·h/mL and an AUC(0-t) (PK profile in monkeys; [9]) of 176 ± 67 µg·h/mL. It also gave a clearance (PK profile in monkeys; [9]) of 0.433 mL/min/kg, a half-life (PK profile in monkeys; [9]) of 34.6 ± 9.5 h and a Vd (PK profile in monkeys; both sexes, monkey, in vivo, monkeys, males and females, read-out: Vss) of 0.184 ± 0.028 L/kg. For the same compound, the Tmax (PK profile in monkeys; in vivo, oral, monkey, PK summary table) was about 1 h, the clearance (PK profile in monkeys; [10]) was 0.517 to 0.667 mL/min/kg and the half-life (PK profile in monkeys; [10]) was 22 to 36 h. For the same compound, the “Systemic clearance compared with other species” value (PK profile in monkeys; monkey vs rats (slower than CL in dogs)) was “comparable to those in rats”, the Dose proportional (PK profile in monkeys; monkey, 10-60 mg/kg) was “Yes” and the “Accumulation (after multiple dosing)” value (PK profile in monkeys; monkey, daily dosing, compared to Day 1 exposure) was 2-3 fold higher. For the same compound, the bioavailability (PK profile in monkeys; monkey, in vivo, monkeys, read-out: Oral bioavailability (Oral % F)) was 36 to 48%, the bioavailability (PK profile in monkeys; monkey, in vivo, monkeys, read-out: Oral bioavailability, group mean) was 42 to 47% and the Dose proportional (PK profile in monkeys; monkey, up to 150 mg/kg) was “less than dose”. The “Dose proportionality of compound exposure” value (PK profile in monkeys; monkeys) was “increased dose proportionally”, the “Vss relative to plasma volume” value (PK profile in monkeys; monkeys) was “higher than plasma volume” and the “Sex difference in PK” value (PK profile in monkeys; monkeys, compound exposure or key PK parameters) was “no marked sex difference and No”. The hypertension ([2]; 20 mg/kg QOD, 16 weeks) was “Significant stabilization of”, the diastolic function ([2]; 20 mg/kg QOD, 16 weeks, end-diastolic pressure, left atrium weight, relaxation time, dp/dt minimum) was “improved; also recorded: Significant improvement in” and the “blood pressure (mean, diastolic, systolic)” value ([2]; monotherapy) was “normalized”. For the same compound, the “Compound of Formula 1 (μg/mL or μg/g)” value ([3]; Colon, 4 h post dose) was 12.9 ± 2.7 μg/mL or μg/g, the “Compound of Formula 1 (μg/mL or μg/g)” value ([3]; Colon, 8 h post dose) was 16.1 ± 6.3 μg/mL or μg/g and the “Compound of Formula 1 (μg/mL or μg/g)” value ([3]; Duodenum, 4 h post dose) was 19.1 ± 5.6 μg/mL or μg/g. For the same compound, the “Compound of Formula 1 (μg/mL or μg/g)” value ([3]; Duodenum, 8 h post dose) was 21.8 ± 4.1 μg/mL or μg/g, the “Compound of Formula 1 (μg/mL or μg/g)” value ([3]; Heart, 4 h post dose) was 10.4 ± 4.6 μg/mL or μg/g and the “Compound of Formula 1 (μg/mL or μg/g)” value ([3]; Heart, 8 h post dose) was 7.4 ± 2.1 μg/mL or μg/g. The “Compound of Formula 1 (μg/mL or μg/g)” value ([3]; Kidney, 4 h post dose) was 9.2 ± 3.4 μg/mL or μg/g, the “Compound of Formula 1 (μg/mL or μg/g)” value ([3]; Kidney, 8 h post dose) was 7.2 ± 1.9 μg/mL or μg/g and the “Compound of Formula 1 (μg/mL or μg/g)” value ([3]; Liver, 4 h post dose) was 40.2 ± 7.2 μg/mL or μg/g. For the same compound, the “Compound of Formula 1 (μg/mL or μg/g)” value ([3]; Liver, 8 h post dose) was 38.4 ± 4.6 μg/mL or μg/g, the “Compound of Formula 1 (μg/mL or μg/g)” value ([3]; Plasma, 4 h post dose) was 56.6 ± 10.6 μg/mL or μg/g and the “Compound of Formula 1 (μg/mL or μg/g)” value ([3]; Plasma, 8 h post dose) was 43.3 ± 11.0 μg/mL or μg/g. For the same compound, the Kp at 4 h ([3]; Colon, 4 h post dose) was 0.23, the Kp at 8 h ([3]; Colon, 8 h post dose) was 0.37 and the Kp at 4 h ([3]; Duodenum, 4 h post dose) was 0.34. It also gave a Kp at 8 h ([3]; Duodenum, 8 h post dose) of 0.5, a Kp at 4 h ([3]; Heart, 4 h post dose) of 0.18 and a Kp at 8 h ([3]; Heart, 8 h post dose) of 0.17. The Kp at 4 h ([3]; Kidney, 4 h post dose) was 0.16, the Kp at 8 h ([3]; Kidney, 8 h post dose) was 0.17 and the Kp at 4 h ([3]; Liver, 4 h post dose) was 0.71. It also gave a Kp at 8 h ([3]; Liver, 8 h post dose) of 0.89, a Kp at 4 h ([3]; Plasma, 4 h post dose) of 1 and a Kp at 8 h ([3]; Plasma, 8 h post dose) of 1. For the same compound, the infarct size [4] was “reduced; also recorded: dose-dependent reducing affect”, the diastolic function [5, 11] was “Some improvement in diastolic” and the systolic function [5, 11] was “improved systolic function (ejection”. For the same compound, the cardiac hypertrophy [5, 12] was “improved; also recorded: Some improvement in diastolic”, the dPdtmax [5, 12] was “improved” and the end-diastolic volume [5, 12] was “improved”. For the same compound, the hematocrit [5, 12] was “no significant effect; also recorded: no erythropoietic effect”, the hemoglobin level [5, 12] was “no significant effect; also recorded: no erythropoietic effect” and the relaxation time [5, 12] was “improved; also recorded: improvement”. The ejection fraction [5, 13] was “significantly improved; also recorded: improvement; also recorded: fraction improved at both doses)”, the end-systolic volume [5, 13] was “significantly improved; also recorded: improvement” and the cardiac contractility ([5]; started 28 days after MI, every other day for 28 days) was “improvement”.
